The record followed here is article PMC7949139, “The molecular basis of OH-PCB estrogen receptor activation” (The Journal of Biological Chemistry, 2021).

The structures appear in SMILES notation.

In the assay the target is T1, SULT1E1 Y239A (Homo sapiens, UniProt P49888, Y239A).
T1 construct: E. coli codon-optimized SULT1E1 coding region inserted into the PreScission Protease cleavage site; His/GST/MBP triple tag (N, cleaved yes); made in house; host or cells: E. coli BL21(DE3)
T1 sequence (P49888 1-294 Y239A): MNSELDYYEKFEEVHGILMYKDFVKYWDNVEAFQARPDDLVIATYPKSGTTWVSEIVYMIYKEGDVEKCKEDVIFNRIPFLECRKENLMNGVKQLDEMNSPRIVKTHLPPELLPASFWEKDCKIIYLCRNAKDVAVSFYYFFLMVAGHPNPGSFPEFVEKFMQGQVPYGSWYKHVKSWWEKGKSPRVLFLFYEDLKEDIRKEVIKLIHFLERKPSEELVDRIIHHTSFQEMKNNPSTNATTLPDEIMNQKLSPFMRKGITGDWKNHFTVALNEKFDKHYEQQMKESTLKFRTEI
Nature of the assay: Initial-rate studies (1-HP sulfonation; OH-PCB1 inhibition), Y239A mutant. It is filed as biochemical. The protocol: C. Reaction progress was monitored via the fluorescence change associated with 1-HP sulfonation (λex = 325 nm, λem = 370 nm ([51], [52])). Initial rates were measured during conversion to product of ≤5% of the concentration-limiting substrate consumed at the reaction endpoint. Velocities were determined in triplicate. Km and kcat were obtained by (1/v^4)-weighted least-squares fitting of the averaged data in double-reciprocal space (i.e., 1/v versus 1/[S]) ([66], [67]).
Inhibition studies were performed as described above except: 1-HP was fixed (2.0 μM, 100 × Km), OH-PCBs were added (0.20–20 × Ki), and SULT1E1 was 0.20 nM (active sites). Ki was determined by least-squares fitting to a noncompetitive inhibition model ([66], [67]).

Take `Oc1ccc(-c2c(Cl)cccc2Cl)cc1` [OH-PCB1, 4ʹ-OH-2,6-dichlorobiphenol]: the “Fold Effect = Ki OH-PCB1/Ki OH-PCB1 WT” value is on record as 5.7. The Ki (noncompetitive inhibition model, parentheses = one SD) is 340 nM.

By Ki is commonly meant a measure of affinity in units of concentration, obtained from inhibition or displacement.
